Assay results: a melting point compilation (Tetko et al.; mined from patent text by program, amines drawn as free bases though some values may be those of a salt)

SMILES | melting point [°C]
CC(C)c1nc(-c2ccccc2)nc(-c2ccc(F)cc2)c1C=CI | 119 to 122
O=C(NCNC(=O)c1ccccc1C(=O)c1ccccc1)Nc1cccc(C(=O)OCc2ccccc2)c1 | 157 to 159
O=CN(CCl)c1ccccc1 | 67
COc1ccc(-c2csc(C)n2)cc1OC1CC2CCC1C2 (stereo not given) | 81 to 82
O=C(O)c1cccc(NC(=O)C(CS)Cc2noc3ccccc23)c1 (stereo not given) | 207 to 209
COc1ccc(S(=O)(=O)C(C)(CCCCN2C(=O)c3ccccc3C2=O)C(=O)NO)cc1 (stereo not given) | 146 to 148
OCC1Cc2sccc2CN1 (racemic) | 110
Oc1ccc2c(ccn2Nc2ccncc2F)c1 | 70 to 73
CCOCCOc1cc(C(F)(F)F)cc(N(N)C(=CNS(C)(=O)=O)[N+](=O)[O-])n1 | 153
COC(=O)COc1ccc(CC(C)NCC(O)c2cccc(C(F)(F)F)c2)cc1C (stereo not given) | 75 to 79
CC1=C2CCC3C(CCC4(C)C3CCC4(C)O)C2(C)CCC1=O (stereo not given) | 141 to 144
COC(=O)[C@@H](OS(=O)(=O)c1ccc(C)cc1)[C@H](O)c1ccc(F)cc1 | 122 to 124
CC(=O)Nc1ccc(C23CC2C(=O)NC3=O)cc1 (stereo not given) | > 230
COc1ccc(S(=O)(=O)Nc2ccc(F)cc2NC(=O)c2ccccc2)cc1 | 153 to 154
CC1CC(=O)NN=C1c1ccc(NC(=NC#N)NCCc2ccccc2)cc1 (stereo not given) | 209 to 210
CCOC(=O)CC1CCc2cc3ccccc3n2C1 (stereo not given) | 66 to 68
Fc1ccc(Nc2ncnc3cnc(N4CCC(CCC5CCNCC5)CC4)nc23)cc1Cl | 112 to 114
Cc1nc(NC(=O)c2cccc(C(F)(F)F)c2)sc1C(=O)NCc1ccccc1 | 195 to 196
NC(=O)[C@@H]1[C@H](Nc2c(Br)cnc3[nH]c(-c4cccc(N5CCOCC5)c4)nc23)[C@H]2C=C[C@@H]1C2 | 232 to 234
CCCCc1nc(Cl)c(CN2CCN(c3ccccc3OC)CC2)n1Cc1ccc(-c2ccccc2-c2nnn[nH]2)cc1 | 154 to 158
CCOC(=O)ONC(=N)COc1cc(OCC(=N)NOC(=O)OCC)c2c(C)c(Cc3ccccc3)c(=O)oc2c1 | 87 to 92
c1ccc(COc2cccc3cc(C4=NCCS4)[nH]c23)cc1 | 129 to 130
Clc1ccc2c(c1)CN1C(=Nc3cccnc3)SC[C@@H]1C2 | 125
COCCn1nc2c(N)nc3ccccc3c2c1CC(C)(C)N | 199 to 200
CC[C@H](C)[C@H](NC(=O)O[C@@H](CC(C)C)C(=O)O)C(=O)NC1CCCCC1 | 193 to 195
COC(=O)CN(N)c1cc(C)cc(C)c1 | 56 to 58
CS(=O)c1cc(CCC(=O)O)cc(-c2nc(=O)c3ccccc3s2)n1 (stereo not given) | 266
O=C(C1CCCC1)[C@H]1CCn2c(cc3ccccc32)C1 | 69

Second part, the molecule after the results:

melting point [°C] | SMILES
> 300 | COc1ccc2c(O)c(-c3ccccc3OC)c(=O)[nH]c2c1
173 to 174 | CC(C)Cn1cc(F)c(=O)[nH]c1=O
109 to 110 | CCc1nc(C(=O)OC)c(Cl)c(N)c1F
70 to 80 | COC(=O)C1=C(C)NC(C)=C(C(=O)NCCCN2CCN(c3ccccc3OC)CC2)C1c1cccc([N+](=O)[O-])c1 (stereo not given)
94 to 96 | Cc1nc(CO)ccc1CO
59 to 60 | Oc1cc2cc(C3CCCCC3)sc2c(Cl)c1Cl
242 to 244 | CN1C(=O)c2ccccc2NC(=O)C1c1ccccc1 (stereo not given)
90 | CC(=O)N1CC(Cc2ccccc2)OC1=O (stereo not given)
88 to 90 | FC(F)(F)Oc1ccc2nc(Cc3ccc4c(c3)CCCC4)[nH]c2c1
132 to 138 | CCOC(=O)C(=CNc1ccc(OCC)c(C)n1)C(=O)OCC
46 to 47 | Cc1ccnn1-c1ccc(Cl)c(Cl)c1
199 to 200 | CCN(CC)CC1CCCN(CC(=O)N2c3ccccc3C(=O)Nc3cccnc32)C1 (stereo not given)
69 to 70 | CC(=O)OCCOCn1cnc2c(N)nc(N)nc21
152 | COc1cc(OCCCN2CCc3cc(OC)c(OC)cc3C2)ccc1NC(=O)c1cccc2c(=O)c3cccc(F)c3[nH]c12
43 to 45 | ClCc1nc(-c2ccccc2)c(-c2ccccc2)o1
238 to 239 | O=C1c2cccc(SCCC(O)O)c2C(=O)c2cccc(SCCC(O)O)c21
256 | CC(=O)Nc1ccc(N2CCN(c3ccc(O)cc3)CC2)cc1
186 to 187 | O=C(Nc1ccc(CN2CCOCC2)cc1)C1=Cc2cc(-c3ccccc3)ccc2CC1
> 260 | CCCCCCc1ccc(-c2ccc(-c3ncc(C(N)=O)cn3)cc2)cc1
128 to 133 | CC(C)(C)c1cc(SC2CC(=O)N(c3ccccc3N3C(=O)CC(Sc4cc(C(C)(C)C)c(O)c(C(C)(C)C)c4)C3=O)C2=O)cc(C(C)(C)C)c1O (stereo not given)
208 to 210 | CCOCc1nc2c(N)nc3ccccc3c2n1CCCNS(C)(=O)=O

melting point [°C] | SMILES
164 to 165 | CN(c1cccc2cc(C3=NCC(C)(CN)S3)[nH]c12)S(=O)(=O)c1cccs1 (stereo not given)
143 to 146 | COC(=O)C1(C)CN(C(=O)Nc2ccc(C(F)(F)F)cc2)N=C1c1ccc(Cl)cc1 (stereo not given)
194 to 196 | COC(=O)c1ccc(Nc2nccc(-c3ccncc3)n2)cc1
187 to 189 | Fc1ccc2occ(N3CCN(C4CCN(c5ccc(F)c6cccnc56)CC4)CC3)c2c1
120 to 121 | CSc1nc(Cl)c2ncccc2n1
204 to 206 | CCOc1cc([N+](=O)[O-])ccc1N1C(=O)c2ccccc2C1=O
221 to 224 | O=C1Nc2cccc(-c3cnc4ccccc4c3)c2C12COc1cc3c(cc12)OCCO3 (stereo not given)
156 to 157 | CC[C@H](C)[C@H](OCc1ccccc1)[C@H]1[C@H]([N+](=O)[O-])[C@H](c2ccccc2)N[C@@H]1C(=O)NCC(=O)O
75 to 76 | CCCCCN1C(=O)C(c2ccc3c(c2)OCO3)(c2cc3c(cc2O)OCO3)c2ccccc21 (stereo not given)
239 to 240 | O=C(O)c1cccc(-c2nnc(-c3ccc(C(F)(F)F)cc3)o2)c1
120 to 122 | CCCCCc1c(-c2ccc3cc(OCc4nnn[nH]4)ccc3c2)n(C)c2ccccc12
193 to 199 | Cn1ccnc1CCNS(=O)(=O)c1ccccc1[N+](=O)[O-]
178 to 179 | O=C(O)Cc1cccc2c(C3CCCCC3)nccc12
> 260 | COc1ccc(NC(=O)c2cnc3ccccc3c2O)cc1
197 to 198 | C#CCSc1cc(C(=O)O)cc(S(N)(=O)=O)c1Oc1ccccc1
227 to 228 | CSc1nn2c(N)cc(C)nc2c1S(=O)(=O)c1cccnc1
109 | CCCN(c1nc(-c2ccc(OC)cc2Cl)c(C)s1)c1cc(C(=O)O)ccc1OC
108 to 110 | COc1ccc(C2SCC(C(=O)O)N2C(=O)c2ccccc2)cc1 (stereo not given)
179 | Cc1cc(OS(=O)(=O)c2c(Cl)cccc2Cl)cc2c(C3CCN(C)CC3)c[nH]c12
203 to 210 | O=C(Nc1nc(-c2ccco2)c(C(=O)C2CCSCC2)s1)c1ccncc1
> 300 | CN1CCN(C2=Nc3ccc(Cl)cc3S(=O)(=O)N2)CC1
